Measured values taken from patent US20240226072A1 (Stichting Het Nederlands Kanker Instituut, priority 2022, published 2024).
Read-outs that look alike come from different tables or passages of the source.

Legend:
in vivo [1] = conditions: male, mouse; for Kp at 24 h: Brain-to-plasma ratio
Procedure: (§1) The Jevtana (10 mg/mL) solution contains 0.26 mg/mL polysorbate 80 and 15% (w/v) ethanol, and is adjusted to pH 2-6 with citric acid. […] The stock solution was further diluted 5-fold with water to reach a 2.5 mg/mL dosing solution for oral administration. The vehicle solution only consists of polysorbate 80, ethanol and water (1:1:8, v/v/v). […] All dosing solutions were prepared freshly on the day of the experiment.
(§2) At the termination time point of 24 hours, mice were anesthetized using an isoflurane evaporator with 3% isoflurane with 0.8 L/min air and 0.3 L/min oxygen. A final blood sample was taken using cardiac puncture, using Eppendorf tubes previously prepared with heparin as an anticoagulant. Subsequently, the anesthetized mice were sacrificed by cervical dislocation and the tissues of interest were collected. Brain, liver, spleen, kidney, small intestine, and testis were collected. The small intestinal content (SIC) was separately collected by removing this from the small intestinal tissue, which was subsequently rinsed with saline to remove possibly fecal residue. The blood samples were centrifuged at 9,000×g for 6 minutes at 4° C., and the plasma fraction was isolated and stored at −30° C. until analysis. Brain, liver, spleen, kidney, small intestinal tissue, SIC, and testis were homogenized in a FastPrep-24™ 5G homogenizer (M. P. Biomedicals, Santa Ana, CA, USA) for 1 min with 1, 3, 1, 2, 3, 2, and 1 mL of 2% (w/v) BSA in Milli-Q water, respectively. Until analysis of the samples, they were all stored at −30° C.
(§3) Pharmacokinetic parameters were estimated by non-compartmental analysis using the software package of PK solutions 2.0.2 (SUMMIT, Research Service). The area under the curve (AUC) of the plasma-concentration time curve for all the compounds was calculated using the linear trapezoidal rule without extrapolating to infinity. The peak plasma concentration (Cmax) and the time to reach peak plasma concentration (Tmax) were obtained directly from the individual raw data. For the statistical analysis and the graphs GraphPad Prism 9 (GraphPad Software Inc., La Jolla, CA, USA) was used. The statistics for the comparison of multiple groups were calculated with the one-way analysis of variance (ANOVA), whereas Sidak's post hoc correction was performed. Log-transformation before statistical analysis was applied, when variances within the groups were not homogeneously distributed. Differences were considered statistically significant when P<0.05. All data are presented as geometric mean±SD.
The last parameter is in many cases the most useful, as it takes the overall exposure into account.

in vivo [2] = conditions: mouse; for AUC(0-t) / AUC0-24 h: po; for AUC(0-t): AUC0-24 h
Procedure: as §1, §2, §3

[3] = Plasma pharmacokinetics and tissue distribution 2 h after oral cabazitaxel 10 mg/kg with vehicle or 25 mg/kg ritonavir in wild-type, Oatp1a/1b−/−, Oatp1a/1b/2b1−/−, OATP1B1- and OATP1B3-transgenic mice; assay type: in vivo; conditions: for CLiver / Cbrain / Pbrain, brain accumulation per h / SIC (% of dose), small intestinal content / AUC(0-t) / Kp at 2 h: cabazitaxel 10 mg/kg oral; for CLiver / Cbrain / Pbrain, brain accumulation per h / SIC (% of dose), small intestinal content / Kp at 2 h: 2 h; for enhancement of AUC0-2h by ritonavir: ritonavir 25 mg/kg compared to respective vehicle group; for AUC(0-t) / Kp at 2 h: male, FVB, mouse; for AUC(0-t): plasma, read-out: AUC0-2 h
Procedure: All animals were fasted 2 to 3 hours prior to the start of the experiment to minimize variation in absorption after oral administration. […] Subsequently, cardiac puncture was performed with a heparinized needle and syringe collecting a final blood sample. […] All samples were stored at −30° C. until analysis.
Differences were considered statistically significant when P<0.05. All data are presented as geometric mean±SD.

[4] = Cyp3aXAV vs Cyp3a−/− (FVB background)
[5] = Cyp3aXAV vs Cyp3a−/− (FVB background), 24 h
[6] = OATP1B1-transgenic mice, ritonavir 25 mg/kg oral
[7] = OATP1B1-transgenic mice, vehicle
[8] = OATP1B3-transgenic mice, ritonavir 25 mg/kg oral
[9] = OATP1B3-transgenic mice, vehicle
[10] = Oatp1a/1b/2b1−/− mice, ritonavir 25 mg/kg oral
[11] = Oatp1a/1b−/− mice, ritonavir 25 mg/kg oral

Kp at 24 h (in vivo [1]; Cyp3aXAV (FVB background), po, 10 mg/kg): 1.52
reduced AUC0-24h (in vivo [1]; [4]): 88.8 fold
reduced Cmax (in vivo [1]; [4]): 12.1 fold
decrease of liver concentration (in vivo [1]; [5]): 341.2 fold
reduction of brain exposure (in vivo [1]; [5]): 167.6 fold
Kp at 24 h (in vivo [1]; Cyp3a−/− (FVB background), po, 10 mg/kg): 0.231
Tmax (in vivo [1]; Cyp3a−/− (FVB background), po, 10 mg/kg, Tmax): 2.08 h
Kp at 24 h (in vivo [1]; wild-type FVB, po, 10 mg/kg): 1.17
increase in AUC0-24h (in vivo [2]; male, Cyp3aXAV (FVB background), 10 mg/kg): 10.1 fold
AUC(0-t) (in vivo [2]; male, Cyp3aXAV (human CYP3A in Cyp3a−/−, FVB background), 10 mg/kg): 1.24 ± 0.177 µM·h
AUC0-24 h (in vivo [2]; male, FVB, Cyp3aXAV, 10 mg/kg): 12.515 µM·h
AUC(0-t) (in vivo [2]; male, FVB, Cyp3aXAV, 10 mg/kg): 12.5 ± 5.41 µM·h
AUC0-24 h (in vivo [2]; male, FVB, wild-type, 10 mg/kg): 72.771 µM·h
AUC(0-t) (in vivo [2]; male, FVB, wild-type, 10 mg/kg): 72.8 ± 2.62 µM·h
alteration in AUC0-24h (in vivo [2]; 1 mg/kg): no alteration
CLiver [3, 6]: 22966 pmol/g
Cbrain [3, 6]: 275 pmol/g
Pbrain, brain accumulation per h [3, 6]: 0.031 h⁻¹
SIC (% of dose), small intestinal content [3, 6]: 1.93 % of dose
CLiver [3, 7]: 3150 pmol/g
Cbrain [3, 7]: 59.0 pmol/g
Pbrain, brain accumulation per h [3, 7]: 0.014 h⁻¹
SIC (% of dose), small intestinal content [3, 7]: 1.43 % of dose
CLiver [3, 8]: 21217 pmol/g
Cbrain [3, 8]: 245 pmol/g
Pbrain, brain accumulation per h [3, 8]: 0.032 h⁻¹
SIC (% of dose), small intestinal content [3, 8]: 1.06 % of dose
CLiver [3, 9]: 2777 pmol/g
Cbrain [3, 9]: 55.8 pmol/g
Pbrain, brain accumulation per h [3, 9]: 0.014 h⁻¹
SIC (% of dose), small intestinal content [3, 9]: 1.00 % of dose
enhancement of AUC0-2h by ritonavir ([3]; Oatp1a/1b/2b1−/− mice): 2.4 fold
CLiver [3, 10]: 21464 pmol/g
Cbrain [3, 10]: 262 pmol/g
Pbrain, brain accumulation per h [3, 10]: 0.029 h⁻¹
SIC (% of dose), small intestinal content [3, 10]: 1.67 % of dose
CLiver ([3]; Oatp1a/1b/2b1−/− mice, vehicle): 2979 pmol/g
Cbrain ([3]; Oatp1a/1b/2b1−/− mice, vehicle): 49.4 pmol/g
Pbrain, brain accumulation per h ([3]; Oatp1a/1b/2b1−/− mice, vehicle): 0.013 h⁻¹
SIC (% of dose), small intestinal content ([3]; Oatp1a/1b/2b1−/− mice, vehicle): 2.22 % of dose
enhancement of AUC0-2h by ritonavir ([3]; Oatp1a/1b−/− mice): 3.0 fold
CLiver [3, 11]: 20747 pmol/g
Cbrain [3, 11]: 323 pmol/g
Pbrain, brain accumulation per h [3, 11]: 0.035 h⁻¹
SIC (% of dose), small intestinal content [3, 11]: 0.91 % of dose
CLiver ([3]; Oatp1a/1b−/− mice, vehicle): 2758 pmol/g
Cbrain ([3]; Oatp1a/1b−/− mice, vehicle): 45.2 pmol/g
Pbrain, brain accumulation per h ([3]; Oatp1a/1b−/− mice, vehicle): 0.014 h⁻¹
SIC (% of dose), small intestinal content ([3]; Oatp1a/1b−/− mice, vehicle): 0.32 % of dose
AUC(0-t) ([3]; OATP1B1-transgenic (Oatp1a/1b−/− background), po, 10 mg/kg, OATP1B1-transgenic mice, ritonavir 25 mg/kg oral): 7.91 µM·h
AUC(0-t) ([3]; OATP1B1-transgenic (Oatp1a/1b−/− background), po, 10 mg/kg, OATP1B1-transgenic mice, vehicle): 3.7 µM·h
AUC(0-t) ([3]; OATP1B3-transgenic (Oatp1a/1b−/− background), po, 10 mg/kg, OATP1B3-transgenic mice, ritonavir 25 mg/kg oral): 6.57 µM·h
AUC(0-t) ([3]; OATP1B3-transgenic (Oatp1a/1b−/− background), po, 10 mg/kg, OATP1B3-transgenic mice, vehicle): 3.51 µM·h
AUC(0-t) ([3]; Oatp1a/1b/2b1−/−, po, 10 mg/kg, Oatp1a/1b/2b1−/− mice, ritonavir 25 mg/kg oral): 6.8 µM·h
AUC(0-t) ([3]; Oatp1a/1b/2b1−/−, po, 10 mg/kg, Oatp1a/1b/2b1−/− mice, vehicle): 2.88 µM·h
AUC(0-t) ([3]; Oatp1a/1b−/−, po, 10 mg/kg, Oatp1a/1b−/− mice, ritonavir 25 mg/kg oral): 7.89 µM·h
AUC(0-t) ([3]; Oatp1a/1b−/−, po, 10 mg/kg, Oatp1a/1b−/− mice, vehicle): 2.62 µM·h
Kp at 2 h ([3]; brain/plasma, po, 10 mg/kg, OATP1B1-transgenic mice, vehicle, read-out: Brain-to-plasma ratio): 0.054
Kp at 2 h ([3]; brain/plasma, po, 10 mg/kg, OATP1B3-transgenic mice, vehicle, read-out: Brain-to-plasma ratio): 0.067
Kp at 2 h ([3]; brain/plasma, po, 10 mg/kg, Oatp1a/1b/2b1−/− mice, vehicle, read-out: Brain-to-plasma ratio): 0.064
Kp at 2 h ([3]; brain/plasma, po, 10 mg/kg, Oatp1a/1b−/− mice, vehicle, read-out: Brain-to-plasma ratio): 0.064
Kp at 2 h ([3]; brain/plasma, po, 10 mg/kg, wild-type mice, vehicle, read-out: Brain-to-plasma ratio): 0.069
Kp at 2 h ([3]; brain/plasma, po, OATP1B1-transgenic mice, ritonavir 25 mg/kg oral, read-out: Brain-to-plasma ratio): 0.045
Kp at 2 h ([3]; brain/plasma, po, OATP1B3-transgenic mice, ritonavir 25 mg/kg oral, read-out: Brain-to-plasma ratio): 0.046
Kp at 2 h ([3]; brain/plasma, po, Oatp1a/1b/2b1−/− mice, ritonavir 25 mg/kg oral, read-out: Brain-to-plasma ratio): 0.047
Kp at 2 h ([3]; brain/plasma, po, Oatp1a/1b−/− mice, ritonavir 25 mg/kg oral, read-out: Brain-to-plasma ratio): 0.055
Kp at 2 h ([3]; brain/plasma, po, wild-type mice, ritonavir 25 mg/kg oral, read-out: Brain-to-plasma ratio): 0.036
Kp at 2 h ([3]; liver, oral, 10 mg/kg, OATP1B1-transgenic mice, vehicle, read-out: Liver-to-plasma ratio): 3.1
Kp at 2 h ([3]; liver, oral, 10 mg/kg, OATP1B3-transgenic mice, vehicle, read-out: Liver-to-plasma ratio): 3.61
Structure (SMILES): CO[C@H]1C(=O)[C@]2(C)[C@@H](OC)C[C@H]3OC[C@@]3(OC(C)=O)[C@H]2[C@H](OC(=O)c2ccccc2)[C@]2(O)C[C@H](OC(=O)[C@H](O)[C@@H](NC(=O)OC(C)(C)C)c3ccccc3)C(C)=C1C2(C)C [cabazitaxel]
